Assay results published in patent US20080004302A1, “Novel Compounds” (ASTRAZENECA AB, priority 2006, published 2008).
Where a name gives a salt, the structure may show the parent alone.

Assays:
FGFR1 IIIc = target: T1, FGFR1 IIIc (Homo sapiens, UniProt P11362); assay: Cell based inhibition of transiently expressed FGFR1 IIIc phosphorylation (Cos-1 cells); conditions: Cos-1 cells, phospho-FGFR1; upper bound of bin; read-out: IC50
T1 construct: host or cells: Cos-1
Method: This assay is designed to detect inhibitors of transiently expressed FGFR1 phosphorylation by antibody staining of fixed cells detected using ArrayScan technology.
To undertake the assay, Cos-1 cells were harvested at 90-95% confluence for cell transfection. For each 96-well plate, 24 ul Lipofectamine 2000 was added to 809 ul OptiMEM and incubated at room temperature for 5 minutes. […] Equal volumes of DNA and Lipofectamine 2000 were combined (DNA: Lipid=1:1.2 ratio) and incubated at room temperature for 20 minutes.
The harvested Cos-1 cells are counted using a coulter counter and diluted further with 1% FCS/DMEM to 2.5×10^5 cells/ml. For each 96-well, 8.33 ml cells were required. […] Media was removed from the wells using vacuum aspiration; cells were fixed by adding 50μl of 100% methanol to each well and incubated at room temperature for 20 minutes.
The plates were read on an Arrayscan (Cellomics).

FGFR1 kinase = FGFR1 kinase (Homo sapiens, UniProt P11362); assay: Kinase assay (using Caliper technology); format: biochemical; conditions: FGFR1 kinase, Caliper; upper bound of bin; read-out: IC50
Method in brief: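 Human FGFR1 kinase activity measured with a 13-mer fluorescently tagged FGFR1-specific peptide substrate; compounds serially diluted in 5% (v/v) DMSO. Reactions ran 1.5 h at room temperature, stopped with EDTA-containing HEPES pH 7.5 buffer. Phosphorylated and unphosphorylated peptide separated by microfluidic mobility shift.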

Erk phosphorylation = assay: Growth factor (bFGF) stimulated Erk phosphorylation in NIH 3T3 cells; conditions: Mus musculus, NIH3T3, NIH 3T3 cells, 3 ng/ml bFGF
From the text: These and other assays were used to evaluate the ability of a test compound to inhibit growth factor stimulated cellular signalling in mammalian cell lines. This was achieved by measuring the amount of receptor tyrosine kinase regulated Erk phosphorylation within a cell following compound treatment.
NIH 3T3 (ECACC, 93061524) cells were routinely passaged in DMEM (Gibco BRL, 41966) plus 10% foetal calf serum (FCS), 1% L-glutamine (Gibco BRL, 25030) to a confluence not greater than 80%. To undertake the assay, NIH 3T3's were seeded at 1×10^4 cells/well in DMEM plus 10% foetal calf serum, 1% L-glutamine in 96 well plates (Costar, 3904) and incubated at 37° C. (+5% CO2) in a humidified incubator. Once the cells had fully adhered (typically following 4-5 hours incubation) the media was removed from each well and the cells gently washed with 100μl warm serum free media. 90μl of serum free DMEM plus 1% L-glutamine was then added to each well and the plates were returned to a humidified 37° C. (+5% CO2) incubator. The following day, the plates were dosed with 10[l compound (diluted from 10 mM stock in DMSO using serum free DMEM) and the plates were returned to a humidified 37° C. (+5% CO2) incubator for one hour. NIH 3T3 cells were then stimulated with a final concentration of 3 ng/ml bFGF (Sigma, F029 1) for 20 minutes at 37° C. Following stimulation the cells were fixed by adding formaldehyde (4% v/v final concentration) and incubating at room temperature for 20 minutes. The fixative solution was then removed and the wells were washed twice with 100μl phosphate buffered saline (PBS/A) before permeabilising the cells by the addition of 50 μl/well 0.1% triton/PBS/A for 10 minutes at room temperature. The permeabilisation solution was then removed and the cells washed twice more with 100 μl/well PBS/A before the addition of 50 μl/well anti-phospho p44/42 (Cell Signalling Technology, 9106), diluted 1/500 with PBS/A plus 10% FCS. The anti-phospho p44/42 antibody recognises Erk phosphorylated at threonine 202 and tyrosine 204. […] Finally, the plates were washed three times with 100 μl/well PBS/A, leaving the final wash in the wells before sealing the plates. The plates were read at 350 nm and 488 nm using an Arrayscan (Cellomics).

human IGF1R = target: T2, human IGF1R (Homo sapiens, UniProt P08069); assay: Inhibition of insulin-like growth factor-1 receptor phosphorylation in R+ cells; format: cell-based; conditions: 30 nM IGF1, read-out: IGF cell class
T2 construct: expressed in transfected cells; host or cells: R+ cells (R- mouse fibroblasts transfected with human IGF1R)
T2 sequence (P08069 31-1367): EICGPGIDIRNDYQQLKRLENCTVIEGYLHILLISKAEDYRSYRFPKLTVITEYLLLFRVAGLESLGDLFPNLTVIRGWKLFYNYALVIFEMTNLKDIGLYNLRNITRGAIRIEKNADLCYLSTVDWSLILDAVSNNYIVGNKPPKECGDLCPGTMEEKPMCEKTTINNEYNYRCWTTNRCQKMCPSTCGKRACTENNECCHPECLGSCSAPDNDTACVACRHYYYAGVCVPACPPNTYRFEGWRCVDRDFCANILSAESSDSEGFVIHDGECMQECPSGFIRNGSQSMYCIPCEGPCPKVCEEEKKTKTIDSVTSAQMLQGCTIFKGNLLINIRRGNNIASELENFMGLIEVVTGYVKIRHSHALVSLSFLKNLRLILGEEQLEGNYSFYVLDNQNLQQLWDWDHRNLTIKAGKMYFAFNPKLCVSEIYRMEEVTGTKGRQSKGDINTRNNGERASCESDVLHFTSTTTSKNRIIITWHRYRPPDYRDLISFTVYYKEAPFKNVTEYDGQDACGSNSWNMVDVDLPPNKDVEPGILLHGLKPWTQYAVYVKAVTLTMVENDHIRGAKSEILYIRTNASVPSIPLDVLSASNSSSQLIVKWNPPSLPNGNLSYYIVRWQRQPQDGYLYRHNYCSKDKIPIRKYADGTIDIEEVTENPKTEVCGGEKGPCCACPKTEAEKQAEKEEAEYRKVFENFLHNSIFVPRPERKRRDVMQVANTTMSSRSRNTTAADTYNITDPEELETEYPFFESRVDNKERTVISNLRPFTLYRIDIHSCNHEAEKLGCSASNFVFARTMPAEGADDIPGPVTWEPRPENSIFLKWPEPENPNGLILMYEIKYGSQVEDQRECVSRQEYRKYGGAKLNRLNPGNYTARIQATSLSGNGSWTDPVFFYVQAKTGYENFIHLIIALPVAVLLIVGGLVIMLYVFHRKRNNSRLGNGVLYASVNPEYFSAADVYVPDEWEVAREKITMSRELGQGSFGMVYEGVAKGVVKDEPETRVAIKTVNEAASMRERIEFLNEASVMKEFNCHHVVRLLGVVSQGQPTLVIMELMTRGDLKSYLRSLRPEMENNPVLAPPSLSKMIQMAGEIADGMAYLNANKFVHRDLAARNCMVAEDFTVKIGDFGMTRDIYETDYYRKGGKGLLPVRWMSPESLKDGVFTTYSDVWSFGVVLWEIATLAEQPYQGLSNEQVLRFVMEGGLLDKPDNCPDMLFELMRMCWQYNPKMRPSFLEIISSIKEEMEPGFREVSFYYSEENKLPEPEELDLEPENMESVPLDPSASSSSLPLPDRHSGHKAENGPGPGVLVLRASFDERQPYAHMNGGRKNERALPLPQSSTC

FGFR1 kinase, sequence (P11362 22-822): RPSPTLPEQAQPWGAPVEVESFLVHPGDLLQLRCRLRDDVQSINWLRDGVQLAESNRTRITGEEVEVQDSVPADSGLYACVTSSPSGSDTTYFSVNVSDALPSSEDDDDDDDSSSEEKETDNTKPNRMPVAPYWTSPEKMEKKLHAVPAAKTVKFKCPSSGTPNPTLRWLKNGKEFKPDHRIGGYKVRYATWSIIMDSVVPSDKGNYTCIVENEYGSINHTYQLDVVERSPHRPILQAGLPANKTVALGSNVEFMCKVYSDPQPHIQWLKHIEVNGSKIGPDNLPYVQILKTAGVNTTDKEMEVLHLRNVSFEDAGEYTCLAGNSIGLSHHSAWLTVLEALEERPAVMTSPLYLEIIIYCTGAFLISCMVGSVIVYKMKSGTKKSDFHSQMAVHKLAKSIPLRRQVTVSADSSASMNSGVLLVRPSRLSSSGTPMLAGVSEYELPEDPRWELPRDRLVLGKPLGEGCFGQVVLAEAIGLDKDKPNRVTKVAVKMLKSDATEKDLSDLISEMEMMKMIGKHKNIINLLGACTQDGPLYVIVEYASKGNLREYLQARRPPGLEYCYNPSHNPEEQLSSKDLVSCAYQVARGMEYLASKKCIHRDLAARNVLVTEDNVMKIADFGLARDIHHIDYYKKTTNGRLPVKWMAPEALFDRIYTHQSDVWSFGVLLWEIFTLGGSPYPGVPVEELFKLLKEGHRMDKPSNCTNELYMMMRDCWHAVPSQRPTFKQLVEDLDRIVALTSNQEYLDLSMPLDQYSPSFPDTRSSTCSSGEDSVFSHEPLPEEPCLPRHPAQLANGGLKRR
T1 sequence (P11362 22-822): as above

Row | IC50 (FGFR1 IIIc) [µM] | IC50 (FGFR1 kinase) [µM] | IC50 (human IGF1R) [µM] | Compound | IC50 (Erk phosphorylation; upper bound of bin) [µM] | IC50 (Erk phosphorylation) [µM]
1 | < 10 | < 10 | 0.1 to 1 | Cc1cc(CNc2nccc(Nc3cc(CCc4cccc(OCc5ccccc5)c4)n[nH]3)n2)on1 [Example 38, N-[(3-methyl1,2-oxazol-5-yl)methyl]-N′-[5-[2-(3-phenylmethoxyphenyl)ethyl]-2H-pyrazol-3-yl]pyrimidine-2,4-diamine] | < 1 | 
2 | < 10 | < 10 | > 10 | Cc1cc(CNc2nccc(Nc3cc(CCc4ccccc4OCc4ccccc4)[nH]n3)n2)on1 [Example 39, N-[(3-methyl1,2-oxazol-5-yl)methyl]-N′-[5-[2-(2-phenylmethoxyphenyl)ethyl]-1H-pyrazol-3-yl]pyrimidine-2,4-diamine hydrochloride] | < 1 | 
3 | < 10 | < 1 | 1 to 10 | COCCOc1cccc(CCc2cc(Nc3ccnc(NCc4cc(C)no4)n3)n[nH]2)c1 [Example 40, N′-[5-[2-[3-(2-methoxyethoxy)phenyl]ethyl]-2H-pyrazol-3-yl]-N-[(3-methyl1,2-oxazol-5-yl)methyl]pyrimidine-2,4-diamine] | < 1 | 
4 | < 10 | < 0.2 | > 10 | Cc1cc(CNc2nccc(Nc3cc(CCc4cc(O)cc(O)c4)[nH]n3)n2)on1 [Example 43, 5-[2-[5-[[2-[(3-methyl1,2-oxazol-5-yl)methylamino]pyrimidin-4-yl]amino]-1H-pyrazol-3-yl]ethyl]benzene-1,3-diol] | < 1 | 
5 | < 1 | < 1 | 1 to 10 | COc1ccc(CCc2cc(Nc3ccnc(NCc4cc(C)no4)n3)n[nH]2)c(C)c1 [Example 47, N′-[5-[2-(4-methoxy-2-methyl-phenyl)ethyl]-2H-pyrazol-3-yl]-N-[(3-methyl1,2-oxazol-5-yl)methyl]pyrimidine-2,4-diamine] | < 1 | 
6 | < 10 | < 1 | > 10 | Cc1cc(CNc2nccc(Nc3cc(CCc4cccc(C#N)c4)[nH]n3)n2)on1 [Example 48, 3-[2-[5-[[2-[(3-methyl-1,2-oxazol-5-yl)methylamino]pyrimidin-4-yl]amino]-2H-pyrazol-3-yl]ethyl]benzonitrile] | < 10 | 
7 | < 10 | < 10 | > 10 | Cc1cc(CNc2nccc(Nc3cc(CCc4cccc(OC(F)(F)F)c4)[nH]n3)n2)on1 [Example 51, N-[(3-methyl1,2-oxazol-5-yl)methyl]-N′-[5-[2-[3-(trifluoromethoxy)phenyl]ethyl]-1H-pyrazol-3-yl]pyrimidine-2,4-diamine] | < 10 | 
8 | < 1 | < 1 | > 10 | Cc1cc(CNc2nccc(Nc3cc(CCc4cccc(Br)c4)[nH]n3)n2)on1 [Example 53, N′-[5-[2-(3-bromophenyl)ethyl]-1H-pyrazol-3-yl]-N-[(3-methyl1,2-oxazol-5-yl)methyl]pyrimidine-2,4-diamine hydrochloride] | < 1 | < 0.2
9 | < 1 | < 1 | 1 to 10 | Cc1cc(CNc2nccc(Nc3cc(CCc4ccc5c(c4)OCO5)[nH]n3)n2)on1 [Example 54, N′-[5-(2-benzo [1,3]dioxol-5-ylethyl)-2H-pyrazol-3-yl]-N-[(3-methyl1,2-oxazol-5-yl)methyl]pyrimidine-2,4-diamine] | < 1 | 
10 | < 10 | < 1 | > 10 | Cc1cc(CNc2nccc(Nc3cc(OCc4cccc(OS(C)(=O)=O)c4)[nH]n3)n2)on1 [Example 88, N-[(3-methyl1,2-oxazol-5-yl)methyl]-N′-[5-[(3-methylsulfonyloxyphenyl)methoxy]-2H-pyrazol-3-yl]pyrimidine-2,4-diamine] | < 10 | 
